The values that follow come from PubChem BioAssay AID330 (DTP/NCI, 2004).

This assay has as its system P388 leukemia ip, CD2F1 mice, survival T/C. Nature of the assay: NCI In Vivo Anticancer Drug Screen. Data for tumor model P388 Leukemia (intraperitoneal) in CD2F1 (CDF1) mice. The settings on record: endpoint: median survival time, higher = longer survival. The method, boiled down: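 Mice carrying the transplanted tumor received test compound or vehicle. Survival was recorded in each group, and the value is the treated-group measurement divided by that of the vehicle-treated control group.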

Where [1] appears, read: dose: 60.0 mg/kg/injection, schedule: Q01DX005 (ip), vehicle: saline with Tween-80.
Where [2] appears, read: dose: 120.0 mg/kg/injection, schedule: Q01DX005 (ip), vehicle: saline with Tween-80.
Where [3] appears, read: dose: 240.0 mg/kg/injection, schedule: Q01DX005 (ip), vehicle: saline with Tween-80.
Where [4] appears, read: dose: 25.0 mg/kg/injection, schedule: Q01DX009 (ip), vehicle: other.
The mark [5] stands for this setting: dose: 50.0 mg/kg/injection, schedule: Q01DX009 (ip), vehicle: other.
Setting [6] is: dose: 50.0 mg/kg/injection, schedule: Q01DX009 (ip), vehicle: saline with Tween-80.
Where [7] appears, read: dose: 100.0 mg/kg/injection, schedule: Q01DX009 (ip), vehicle: other.
Where [8] appears, read: dose: 200.0 mg/kg/injection, schedule: Q01DX009 (ip), vehicle: other.
Where [9] appears, read: dose: 400.0 mg/kg/injection, schedule: Q01DX009 (ip), vehicle: other.
[10] abbreviates: dose: 50.0 mg/kg/injection, schedule: Q01DX005 (ip), vehicle: saline.
[11] abbreviates: dose: 100.0 mg/kg/injection, schedule: Q01DX005 (ip), vehicle: saline.
[12] abbreviates: dose: 200.0 mg/kg/injection, schedule: Q01DX005 (ip), vehicle: saline.
The mark [13] stands for this setting: dose: 60.0 mg/kg/injection, schedule: Q01DX005 (ip), vehicle: Klucel (hydroxypropylcellulose) (HPC).
[14] abbreviates: dose: 120.0 mg/kg/injection, schedule: Q01DX005 (ip), vehicle: Klucel (hydroxypropylcellulose) (HPC).
The mark [15] stands for this setting: dose: 50.0 mg/kg/injection, schedule: Q01DX005 (ip), vehicle: saline with Tween-80.
Setting [16] is: dose: 100.0 mg/kg/injection, schedule: Q01DX005 (ip), vehicle: saline with Tween-80.
Where [17] appears, read: dose: 200.0 mg/kg/injection, schedule: Q01DX005 (ip), vehicle: saline with Tween-80.

Values joined by “and” are separate entries in the source; they are usually repeats but may differ in a detail not shown here. Identical values can stand only once. Toxic doses and inconclusive results are not listed.

Regarding `O=[N+]([O-])c1cc(CNCCO)c(O)c2ncccc12`, the T/C reads like this: under setting [1], 91 % of control; under setting [2], 93 % of control; under setting [3], 110 % of control.
Regarding `O=S(=O)(F)c1ccc(Cl)cc1C[P+](c1ccccc1)(c1ccccc1)c1ccccc1`, the T/C (dose: 25.0 mg/kg/injection, schedule: Q01DX001 (ip), vehicle: Klucel (hydroxypropylcellulose) (HPC)) was 115 % of control and 120 % of control.
Regarding `COc1cc(OC)c(OC)cc1/C=C/C1=C(C)C(=O)CC(c2cc(OC)c(OC)cc2OC)C1C` (stereo not drawn), the T/C is 86 % of control (dose: 100.0 mg/kg/injection, schedule: Q01DX001 (ip), vehicle: Klucel (hydroxypropylcellulose) (HPC)) and 86 % of control (dose: 200.0 mg/kg/injection, schedule: Q01DX001 (ip), vehicle: Klucel (hydroxypropylcellulose) (HPC)).
Regarding `O=NN(c1ccc(Br)cc1)c1ccccn1`, the T/C is 102 % of control under setting [4]; 109 % of control under setting [5]; 100 % of control under setting [6]; 109 % of control under setting [7]; 100 % of control (dose: 100.0 mg/kg/injection, schedule: Q01DX009 (ip), vehicle: saline with Tween-80); 114 % of control under setting [8]. The T/C reads like this: (dose: 200.0 mg/kg/injection, schedule: Q01DX009 (ip), vehicle: saline with Tween-80) 97 % of control; under setting [9], 112 % of control.
For the molecule `O=S(=O)(N/N=C/c1ccccc1)c1ccccc1`, the T/C (dose: 25.0 mg/kg/injection, schedule: Q01DX009 (ip), vehicle: Klucel (hydroxypropylcellulose) (HPC)) is 106 % of control; the T/C (dose: 50.0 mg/kg/injection, schedule: Q01DX009 (ip), vehicle: Klucel (hydroxypropylcellulose) (HPC)) is 97 % of control; the T/C (dose: 100.0 mg/kg/injection, schedule: Q01DX009 (ip), vehicle: Klucel (hydroxypropylcellulose) (HPC)) is 99 % of control; the T/C (dose: 200.0 mg/kg/injection, schedule: Q01DX009 (ip), vehicle: Klucel (hydroxypropylcellulose) (HPC)) is 106 % of control.
For `CCOC(=O)C(=CNc1ccccc1-n1cccc1)C(=O)OCC`, the T/C is, setting by setting: (dose: 50.0 mg/kg/injection, schedule: Q01DX005 (ip), vehicle: Klucel (hydroxypropylcellulose) (HPC)) 100 % of control; (dose: 100.0 mg/kg/injection, schedule: Q01DX005 (ip), vehicle: Klucel (hydroxypropylcellulose) (HPC)) 108 % of control; (dose: 200.0 mg/kg/injection, schedule: Q01DX005 (ip), vehicle: Klucel (hydroxypropylcellulose) (HPC)) 93 % of control.
Regarding `CC1CC=CCC1C1NC(C(=O)O)CS1` (stereo not drawn), the T/C is 106 % of control (dose: 50.0 mg/kg/injection, schedule: Q01DX009 (ip), vehicle: suspension in saline); 107 % of control and 88 % of control (dose: 100.0 mg/kg/injection, schedule: Q01DX009 (ip), vehicle: suspension in saline); 98 % of control and 96 % of control (dose: 200.0 mg/kg/injection, schedule: Q01DX009 (ip), vehicle: suspension in saline).
As to `C1COCCNCCOCCOCCN1`, the T/C reads like this: under setting [10], 95 % of control; under setting [11], 106 % of control; under setting [12], 95 % of control.
As to `CCOC(=O)CCCCCN(/C=C(\C)CN1c2c(nc(N)[nH]c2=O)NCC1CNc1ccc(C(=O)NC(CCC(=O)O)C(=O)O)cc1)C(C)=O` (stereo not drawn), the T/C is, setting by setting: (dose: 50.0 mg/kg/injection, schedule: Q01DX001 (ip), vehicle: sodium bicarbonate) 99 % of control; (dose: 100.0 mg/kg/injection, schedule: Q01DX001 (ip), vehicle: sodium bicarbonate) 100 % of control; (dose: 200.0 mg/kg/injection, schedule: Q01DX001 (ip), vehicle: sodium bicarbonate) 100 % of control.
`CCOc1ccc2ccc3cccnc3c2n1`: the T/C under setting [1] is 96 % of control, the T/C under setting [2] is 94 % of control and the T/C under setting [3] was 99 % of control.
Regarding `CN(C)CCC(=O)C(=Cc1ccc(Cl)c(Cl)c1)C(=O)CCN(C)C`, the T/C reads like this: under setting [10], 104 % of control; under setting [11], 109 % of control.
Take `CC1(C)OC2(C)CCC1C1C2N1C(=O)NCCCl` (stereo not drawn): the T/C was 108 % of control under setting [10], 100 % of control under setting [11] and 89 % of control under setting [12].
Consider `CNC(=S)NNc1nc(N(C)C)nc(N(C)C)n1`, for which the T/C by setting is: (dose: 100.0 mg/kg/injection, schedule: Q04DX002 (ip), vehicle: saline with Tween-80) 98 % of control; (dose: 200.0 mg/kg/injection, schedule: Q04DX002 (ip), vehicle: saline with Tween-80) 92 % of control; (dose: 400.0 mg/kg/injection, schedule: Q04DX002 (ip), vehicle: saline with Tween-80) 93 % of control.
`O=c1c(-c2cccc(O)c2O)coc2cc(OC3OC(CO)C(O)C(O)C3O)ccc12` (stereo not drawn): the T/C under setting [1] was 100 % of control, the T/C under setting [2] was 100 % of control and the T/C under setting [3] was 97 % of control.
In the case of `Nc1nc(SCC(=O)O)[nH]c(=O)c1NS(=O)(=O)c1ccccc1`, the T/C reads like this: under setting [13], 108 % of control; under setting [14], 109 % of control.
As for `C=C(C)C1Oc2ccc(C(C)=O)cc2C1O` (stereo not drawn), the T/C by setting is: (dose: 8.8 mg/kg/injection, schedule: Q01DX009 (ip), vehicle: saline) 103 % of control; (dose: 17.5 mg/kg/injection, schedule: Q01DX009 (ip), vehicle: saline) 89 % of control; (dose: 35.0 mg/kg/injection, schedule: Q01DX009 (ip), vehicle: saline) 100 % of control.
As for `CC(SC(SC(C)C(=O)O)c1ccccc1)C(=O)O` (stereo not drawn), the T/C was 105 % of control (dose: 100.0 mg/kg/injection, schedule: Q01DX001 (ip), vehicle: other); 107 % of control (dose: 200.0 mg/kg/injection, schedule: Q01DX001 (ip), vehicle: other); 98 % of control (dose: 400.0 mg/kg/injection, schedule: Q01DX001 (ip), vehicle: other).
Regarding `COC(=O)N/N=C(/CC1(O)C(=O)Nc2ccccc21)c1ccc(Cl)cc1Cl` (stereo not drawn), the T/C runs as follows: under setting [15], 99 % of control; under setting [16], 93 % of control; under setting [17], 92 % of control.
For the molecule `Cc1cc(C)c(C(Cl)(Cl)Cl)c(C)c1Cl`, the T/C runs as follows: (dose: 6.25 mg/kg/injection, schedule: Q04DX003 (ip), vehicle: saline with Tween-80) 104 % of control; (dose: 8.0 mg/kg/injection, schedule: Q04DX003 (ip), vehicle: saline with Tween-80) 90 % of control; (dose: 12.0 mg/kg/injection, schedule: Q04DX003 (ip), vehicle: saline with Tween-80) 100 % of control; (dose: 12.5 mg/kg/injection, schedule: Q01DX009 (ip), vehicle: saline sonified) 118 % of control; (dose: 12.5 mg/kg/injection, schedule: Q04DX003 (ip), vehicle: saline with Tween-80) 118 % of control; (dose: 18.0 mg/kg/injection, schedule: Q04DX003 (ip), vehicle: saline with Tween-80) 113 % of control. Moreover, the T/C reads like this: (dose: 33.0 mg/kg/injection, schedule: Q01DX009 (ip), vehicle: saline sonified) 165 % of control; (dose: 50.0 mg/kg/injection, schedule: Q01DX009 (ip), vehicle: saline sonified) 150 % of control; (dose: 75.0 mg/kg/injection, schedule: Q01DX009 (ip), vehicle: saline sonified) 105 % of control.
For the molecule `C=CCNC(=O)C(NC(=O)OCCCC)NC(=O)OCCCC`, the T/C was 95 % of control under setting [15], 87 % of control under setting [16] and 87 % of control under setting [17].
Take `CCNS(=O)(=O)c1ccc2c(c1)nc(SC)n2CC`: the T/C is 104 % of control under setting [13]; 105 % of control under setting [14]; 104 % of control (dose: 240.0 mg/kg/injection, schedule: Q01DX005 (ip), vehicle: Klucel (hydroxypropylcellulose) (HPC)).
Take `N=c1c(C(N)=O)nc(/C=C/c2ccccc2)cn1O`: the T/C runs as follows: (dose: 12.5 mg/kg/injection, schedule: Q01DX009 (ip), vehicle: saline with Tween-80) 90 % of control; (dose: 25.0 mg/kg/injection, schedule: Q01DX009 (ip), vehicle: saline with Tween-80) 90 % of control; under setting [6], 96 % of control.
For `COc1ccc(N=Cc2cc3c(cc2Br)OCO3)cc1`, the T/C by setting is: under setting [4], 97 % of control; under setting [5], 96 % of control; under setting [7], 94 % of control; under setting [8], 100 % of control; under setting [9], 100 % of control.
